According to article PMC8589628, “Characterization and Antimicrobial Studies of Iturin-Like and Bogorol-Like Lipopeptides From Brevibacillus spp. Strains GI9 and SKDU10” (Frontiers in Microbiology, 2021):
Peptide text beside a SMILES is read from it. * marks the point of attachment. X1 = CC(C)CCCCCCCCCCCCC(=O)*

Assays:
[1] = system: C. glabrata MTCC 3019; assay: MIC, microtiter plate dilution assay; format: cell-based; conditions: YMB, 5 × 10^5 CFU/ml, 37°C, OD 600 nm after 48 h
Protocol: (§1) The antimicrobial activity of HPLC purified compounds was determined against various test strains including S. aureus MTCC 1430, Vibrio cholera MTCC 3904, Bacillus subtilis MTCC 121, Listeria monocytogenes MTCC 839, C. albicans MTCC 183, C. albicans MTCC 1637, C. albicans MTCC 227, C. tropicalis MTCC 184, C. glabrata MTCC 3019, and C. inconspicua MTCC 1074. Antimicrobial activity was also tested against clinical Candida strains and phytopathogenic fungi viz. Fusarium moniliforme MTCC 158, Alternaria brassicicola MTCC 2102 and Colletotrichum acutatum MTCC 1037. Bacterial and Candida test strains were grown in NB and yeast malt broth (YMB), respectively. Fungal test strains were grown in potato dextrose broth (PDB). Minimum inhibitory concentrations (MICs) of purified compounds were evaluated against test organisms by using a microtiter plate dilution assay. Mid-log-phase test strains (5 × 10^5 CFU/ml) were incubated in a 96-well plate with different concentrations of the lipopeptides for 24–48 h at 37°C (final volume of 200 μl). OD was measured at 600 nm after 24 and 48 h for bacteria and yeast, respectively, using an ELISA microplate reader (Thermo Scientific, United States). MIC against phytopathogenic fungi was determined using the 96-well microtiter plate method ([Sharma et al., 2020]).

[2] = system: C. haemulonii MTCC 2766; assay: MIC, microtiter plate dilution assay; format: cell-based; conditions: YMB, 5 × 10^5 CFU/ml, 37°C, OD 600 nm after 48 h
Protocol: as §1

[3] = system: C. tropicalis MTCC 184; assay: MIC, microtiter plate dilution assay; format: cell-based; conditions: YMB, 5 × 10^5 CFU/ml, 37°C, OD 600 nm after 48 h
Protocol: as §1

[4] = system: C. inconspicua MTCC 1074; assay: MIC, microtiter plate dilution assay; format: cell-based; conditions: YMB, 5 × 10^5 CFU/ml, 37°C, OD 600 nm after 48 h
Protocol: as §1

[5] = system: C. albicans MTCC 183; assay: MIC, microtiter plate dilution assay; format: cell-based, Candida albicans; conditions: YMB, 5 × 10^5 CFU/ml, 37°C, OD 600 nm after 48 h
Protocol: as §1

[6] = system: C. albicans MTCC 1637; assay: MIC, microtiter plate dilution assay; format: cell-based, Candida albicans; conditions: YMB, 5 × 10^5 CFU/ml, 37°C, OD 600 nm after 48 h
Protocol: as §1

[7] = system: C. albicans MTCC 227; assay: MIC, microtiter plate dilution assay; format: cell-based, Candida albicans; conditions: YMB, 5 × 10^5 CFU/ml, 37°C, OD 600 nm after 48 h
Protocol: as §1

[8] = system: C. albicans 400054; assay: MIC, microtiter plate dilution assay, clinical strain; format: cell-based, Candida albicans; conditions: YMB, 37°C, OD 600 nm after 48 h
Protocol: (§2) Brevibacillus sp. strains GI-9 and SKDU10 were known to produce class IId bacteriocins identified as laterosporulins a ([Singh et al., 2012]; [Baindara et al., 2016]). Both strains were grown on nutrient agar (NA, Himedia, India). All test strains used in this study were obtained from Microbial Type Culture Collection and Gene bank (MTCC), Chandigarh, India. Clinical Candida strains were obtained from the National Culture Collection of Pathogenic Fungi (NCCPF), PGIMER, Chandigarh, India, and all strains were grown on recommended media.
as §1

[9] = system: C. krusei 440009; assay: as above; format: cell-based; conditions: YMB, 37°C, OD 600 nm after 48 h
Protocol: as §2, §1

[10] = system: C. parapsilosis 450030; assay: as above; format: cell-based; conditions: YMB, 37°C, OD 600 nm after 48 h
Protocol: as §2, §1

[11] = system: C. rugosa 470141; assay: as above; format: cell-based; conditions: YMB, 37°C, OD 600 nm after 48 h
Protocol: as §2, §1

[12] = system: C. acutatum MTCC1037; assay: MIC against phytopathogenic fungi, 96-well microtiter plate method; format: cell-based, Colletotrichum acutatum; conditions: PDB
Protocol: as §1

[13] = system: F. moniliforme MTCC 158; assay: as above; format: cell-based, Fusarium moniliforme; conditions: PDB
Protocol: as §1

[14] = Effect of temperature and pH on activity (well-diffusion assay); format: physicochemical
Protocol: Sensitivities of purified antimicrobial compounds to temperature, pH, and hydrolytic enzymes were confirmed by performing well-diffusion assay. pH stability was determined by adjusting the pH of aliquots of purified antimicrobial compounds from 2.0 to 12.0 (using 10 mM HCl or NaOH) and incubating at room temperature for 4 h. The residual activity was measured after neutralizing the sample to pH 7.0. To determine temperature susceptibility, antimicrobial compounds were incubated at different temperatures ranging from 37 to 100°C for 1 h and 121°C for 15 min, and then residual antimicrobial activity was determined after cooling the samples to room temperature. Similarly, proteolytic enzymes such as trypsin and proteinase K were used at three different concentrations (0.1, 1.0, and 5.0 mg/ml) to ensure their effect on the activity of antimicrobial compounds. The enzyme solutions were prepared in 50 mM phosphate buffer (pH 7.0). All reactions were performed at 37°C for 6 h followed by deactivation of the enzyme by heating the solution in boiling water for 5 min before performing the activity assay.

[15] = system: V. cholerae MTCC 3904; assay: TEM of treated cells; format: cell-based; conditions: V. cholerae MTCC 3904, 1X MIC, 30 min, 37°C
Protocol: Effect of antimicrobial compounds on cell membrane of test organisms was determined by transmission electron microscopy (TEM). Test strains, S. aureus MTCC 1430, V. cholerae MTCC 3904, and C. albicans MTCC 183 were cultured to mid-log phase, washed, and re-suspended in 1X PBS (OD 600 nm 0.2). The cell suspensions were incubated (37°C) with 1X MIC of purified antimicrobial compounds for 30 min. Cells after treatment were centrifuged, washed twice with PBS. For TEM, cells of S. aureus MTCC 1430 and V. cholerae MTCC 3904 were subjected to negative stain with 0.1% (w/v) sodium phosphotungstate (PTA, Sigma, United States) in water for 1 min, on a carbon-coated copper grid with 300 mesh (Polyscience, United States) and observed under transmission electron microscope (JEOL JEM 2100, United States) ([Raje et al., 2006]). For SEM, C. albicans MTCC 183 cells were immobilized on poly L-lysine glazed glass slides and incubated at 4°C for 2 h. Cells were fixed using Karnovsky’s fixative and serially dehydrated with gradient of ethanol, freeze dried, and platinum coated. ZEISS EV040 (United States) scanning electron microscope was employed to photograph the cells ([Raje et al., 2006]). Spores of A. brassicicola MTCC 2102 were treated with 2X MIC of lipopeptides for 2 h and observed under phase-contrast microscope (Nickon H600L, Japan). […]

[16] = Temperature 37 °C, 1h (pH 7.0), well-diffusion assay
[17] = Temperature 60 °C, 1h (pH 7.0), well-diffusion assay
[18] = Temperature 80 °C, 1h (pH 7.0), well-diffusion assay
[19] = Temperature 100 °C, 1h (pH 7.0), well-diffusion assay
[20] = Temperature 121 °C, 15 min (304 kPa) (pH 7.0), well-diffusion assay
[21] = pH 2.0, 4h/ 25 °C, neutralised to pH 7.0 before well-diffusion assay
[22] = pH 4.0, 4h/ 25 °C, neutralised to pH 7.0 before well-diffusion assay
[23] = pH 6.0, 4h/ 25 °C, neutralised to pH 7.0 before well-diffusion assay
[24] = pH 7.0, 4h/ 25 °C, well-diffusion assay
[25] = pH 8.0, 4h/ 25°C, neutralised to pH 7.0 before well-diffusion assay
[26] = pH 10.0, 4h/ 25 °C, neutralised to pH 7.0 before well-diffusion assay
[27] = pH 12.0, 4h/ 25 °C, neutralised to pH 7.0 before well-diffusion assay

Row | Compound | Residual activity [14, 16] [%] | Residual activity [14, 17] [%] | Residual activity [14, 18] [%] | Residual activity [14, 19] [%] | Residual activity [14, 20] [%] | Residual activity [14, 21] [%] | Residual activity [14, 22] [%] | Residual activity [14, 23] [%] | Residual activity [14, 24] [%] | Residual activity [14, 25] [%] | Residual activity [14, 26] [%] | Residual activity [14, 27] | Effect on cells (TEM) [15] | further results
1 | Dhb-Tyr-Orn-Ile-Val-Val-Lys-Val-Leu-Asp-Val-Glu [BLL, bogorol like lipopeptide purified from Brevibacillus sp. strain SKDU10; 12 amino acids and C17 hydroxy fatty acid side chain] | 100 | 100 | 100 | 100 | 100 | 52 | 100 | 100 | 100 | 100 | 94.3 | Nil | irregularities in structure with rupturing of cell wall and lysis | MIC value [1]: 290 to 300 µg/mL; MIC value [2]: 340 to 360 µg/mL; MIC value [3]: 290 to 310 µg/mL; MIC value [4]: 100 to 110 µg/mL; MIC value [5]: 150 to 170 µg/mL; MIC value [6]: 250 to 260 µg/mL; MIC value [7]: 300 to 310 µg/mL; MIC value [8]: 240 to 260 µg/mL; MIC value [9]: 240 to 250 µg/mL; MIC value [10]: 290 to 310 µg/mL; MIC value [11]: 240 to 250 µg/mL; MIC value [12]: 430 to 450 µg/mL; MIC value [13]: 490 to 510 µg/mL; Thermostability (activity after exposure to 121°C for 15 min, autoclaving) [14]: thermostable
2 | CC(C)CCCCCCCCCCCCC(=O)N[C@H](C(=O)NCC(=O)N[C@@H](C)C(=O)N[C@@H](CO)C(=O)N[C@@H](Cc1c[nH]cn1)C(=O)N[C@@H](CCC(N)=O)C(=O)N[C@@H](CCC(N)=O)C(=O)O)[C@@H](C)O [ILL] (X1-TGASHQQ-OH; N-terminus assumed) | 100 | 100 | 100 | 100 | 100 | 43 | 95.5 | 100 | 100 | 100 | 100 | Nil | lysis with accumulation of debris on cell surface, altered morphology, and shrinkage | 
